Each structure is given as a SMILES string.

Holding throughout (test): cell proliferation assay
Holding throughout (assay type): cell-based

Assay [1] relates to BCR-ABL1. Conditions: BCR-ABL1-positive cells; proliferation read-out; stated gain.
Assay [2] has as its system BCR-ABL1. Conditions: BCR-ABL1-positive cells; proliferation read-out; stated gain. This is another data set of the same source.
Assay [3] deals with BCR-ABL1. The settings on record: BCR-ABL1-positive cells; proliferation read-out; stated gain. This is another data set of the same source.
The test system of assay [4] is BCR-ABL1. Conditions: BCR-ABL1-positive cells; proliferation read-out.

What is called IC50 is the point on the concentration scale where inhibition reaches its midpoint. Take `Cc1ccc(C(=O)NNC(=O)c2c(C)cccc2Cl)cc1C#Cc1cnc2ccccc2c1` [K0706]: the IC50 in the assay on BCR-ABL1 [1] worked out at 1967 nM; with BCR-ABL1 [2] it was 165 nM; in the assay on BCR-ABL1 [3] it was 154 nM; in the assay on BCR-ABL1 [4], 7 nM.

For the origin of these results see PMC6803074 (Experimental hematology, 2019).
